Source: patent publication US10611730B2, “Benzimidazolone and benzothiazolone compounds and their use as AMPA receptor modulators” (Janssen Pharmaceutica NV, priority 2015, dated 2020)

What was measured:
[1] = target: TARP γ8 dependent AMPA receptor (GluA1o-g8 fusion channel) (Homo sapiens (Human), UniProt P42261+Q8WXS5); assay: Calcium flux assay (FLIPR), HEK293 cells expressing GRIA1o-CACNG8 fusion; assay type: cell-based; conditions: inhibition of calcium flux after 15 μM glutamate; for IC50: read-out: GluR1-γ8 pIC50 (converted)
How it was run: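 Stable HEK293 clone expressing GluA1o-γ8 fusion (1:1 stoichiometry), loaded with Calcium-5/6 dye plus test compound; glutamate-evoked fluorescence normalized to control wells. Concentration-response fitted to four-parameter logistic, midpoint taken as inhibitory potency.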

[2] = test system: endogenous γ 8-containing AMPA receptor currents; assay: Whole-cell electrophysiology on acutely-dissociated mouse hippocampal neurons; assay type: cell-based; conditions: 10 mM glutamate, 500 ms, held at −60 mV
Method: The effects of selected compounds upon endogenous γ 8-containing AMPA receptor currents was evaluated using whole-cell electrophysiology on acutely-dissociated mouse hippocampal neurons. Hippocampus was chosen for this assay, since CACNG8 (the protein encoded by this gene is a type I transmembrane AMPA receptor regulatory protein i.e., TARP) is preferentially enriched in this brain region (Tomita et al. (2003). “Functional studies and distribution define a family of transmembrane AMPA receptor regulatory proteins.” J Cell Biol 161(4): 805-816.2003).
Hippocampi were dissected from C57black6 mice at 4-12 weeks postnatal, following the protocol described by Brewer (Brewer, G. J. (1997). “Isolation and culture of adult rat hippocampal neurons.” Journal of Neuroscience Methods 71(2): 143-155). The following is a brief summary of the procedure. Mice were asphyxiated with CO2 then decapitated. The brain was rapidly removed, then placed into ice-cold HABG medium. The recipe for HABG medium was: HibernateA supplemented with 2% B27 and 0.5 mM Glutamax (all reagents from Life Technologies). Hippocampi were micro-dissected from the brains, then washed with HABG without calcium (Hibernate A minus Calcium, BrainBits; 2% B27, Life Technologies; 0.5 mM glutamax, Life Technologies).
The hippocampi were then transferred to HABG without calcium, supplemented with 2 mg/mL papain (Worthington Biochemical). They were incubated at 30° C. on a roller for 40 min, then gently triturated with a fire-polished glass pipette. The supernatant containing dissociated neurons was collected, then centrifuged for 2 min at 200 g. The cell pellet was collected, and then resuspended in 8 mL of HABG. Live cells were counted, then plated onto 12 mm glass coverslips in HABG (2 mL) in 24-well plates at a density of 50-100 cells per coverslip. These cells were maintained at room temperature until use.
Whole-cell electrophysiology was performed using 1.5 mm diameter glass capillary tubes (World Precision Instruments TW150-4), pulled to a fine tip with a Sutter P-97 micropipette puller. The intracellular buffer was 90 mM KF, 30 mM KCl, 10 mM HEPES, and 5 mM EGTA, pH 7.4, 290 mOs. The extracellular buffer was 135 mM NaCl, 4 mM KCl, 2 mM CaCl2), 1 mM MgCl2, 5 mM glucose, 10 mM HEPES, pH 7.4, 300 mOs. The open-tip resistances of the micropipettes using these solutions were 2-4MΩ. Whole-cell recordings of neuron cell bodies were performed in voltage-clamp mode using an Axon Axopatch 200B amplifier. Whole-cell current was measured holding the interior of the cell at −60 mV, using a 5 kHz lowpass filter. The cells were continuously perfused through 7 mm square glass barrels using a solenoid-controlled solution switching device (Warner Instruments, PF-77B). The peak current in response to a 500 ms exposure to 10 mM glutamate every 5 seconds was measured, before and after exposure to test compound.
For analysis, the mean peak current of 5 traces in the presence of test compound was divided by the mean peak current of 5 traces prior to the addition of test compound. Compounds were tested at concentrations at least ten times higher than their estimated potency in the calcium flux assay, in order to ensure near-saturating occupancy of the receptor.
The table below summarizes the results of this electrophysiological assay. Peak current (% control) is mean of the peak response to glutamate in the presence of the indicated compound, normalized to the peak response to glutamate in the absence of test compound. N is the number of neurons tested. The compounds were tested at concentrations noted below in Table 5. At the said tested concentrations, the peak response to glutamate was reduced compared to controls for all tested compounds.

Chain of TARP γ8 dependent AMPA receptor (GluA1o-g8 fusion channel) (P42261 other isoform, or with tags, fused parts or gaps): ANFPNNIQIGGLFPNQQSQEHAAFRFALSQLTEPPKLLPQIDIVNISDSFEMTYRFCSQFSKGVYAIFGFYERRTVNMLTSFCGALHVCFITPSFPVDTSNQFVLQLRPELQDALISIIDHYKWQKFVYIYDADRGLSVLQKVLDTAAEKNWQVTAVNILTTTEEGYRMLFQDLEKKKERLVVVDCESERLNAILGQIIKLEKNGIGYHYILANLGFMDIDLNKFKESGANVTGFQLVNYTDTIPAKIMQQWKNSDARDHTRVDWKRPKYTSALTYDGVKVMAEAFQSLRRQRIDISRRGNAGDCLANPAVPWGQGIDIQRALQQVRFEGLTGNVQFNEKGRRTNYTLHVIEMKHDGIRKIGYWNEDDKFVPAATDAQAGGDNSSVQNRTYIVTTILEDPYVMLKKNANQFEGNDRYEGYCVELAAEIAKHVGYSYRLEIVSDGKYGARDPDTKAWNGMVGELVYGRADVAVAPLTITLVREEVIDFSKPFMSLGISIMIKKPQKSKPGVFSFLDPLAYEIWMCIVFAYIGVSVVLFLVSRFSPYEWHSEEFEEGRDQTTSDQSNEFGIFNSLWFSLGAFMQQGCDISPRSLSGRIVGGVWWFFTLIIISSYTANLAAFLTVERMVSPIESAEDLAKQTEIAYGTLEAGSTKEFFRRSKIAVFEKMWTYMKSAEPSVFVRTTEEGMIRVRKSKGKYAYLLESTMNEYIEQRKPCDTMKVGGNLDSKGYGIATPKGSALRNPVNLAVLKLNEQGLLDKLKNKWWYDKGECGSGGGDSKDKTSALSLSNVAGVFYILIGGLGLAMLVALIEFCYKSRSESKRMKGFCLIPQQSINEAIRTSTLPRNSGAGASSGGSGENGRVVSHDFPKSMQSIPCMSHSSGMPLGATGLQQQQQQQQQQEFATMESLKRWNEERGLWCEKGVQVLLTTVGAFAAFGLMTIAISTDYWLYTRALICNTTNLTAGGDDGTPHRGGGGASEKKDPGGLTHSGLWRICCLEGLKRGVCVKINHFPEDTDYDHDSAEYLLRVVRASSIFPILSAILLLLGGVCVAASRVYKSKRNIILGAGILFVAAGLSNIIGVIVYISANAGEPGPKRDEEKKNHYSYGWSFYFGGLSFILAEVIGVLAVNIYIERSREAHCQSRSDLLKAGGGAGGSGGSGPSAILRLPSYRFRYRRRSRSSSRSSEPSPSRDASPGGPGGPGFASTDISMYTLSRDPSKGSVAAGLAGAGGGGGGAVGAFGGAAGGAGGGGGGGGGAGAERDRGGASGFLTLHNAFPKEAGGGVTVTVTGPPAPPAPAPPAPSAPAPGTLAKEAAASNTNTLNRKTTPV

SMILES | IC50 [1] | peak current (% control) ([2]; 1 μM compound) | GluR1-γ8 pIC50 [1] | peak current (% control) ([2]; 10 μM compound)
N#CCc1cccc(Cl)c1-c1ccc2[nH]c(=O)[nH]c2c1 [Example 124, 2-[3-Chloro-2-(2-oxo-1,3-dihydrobenzimidazol-5-yl)phenyl]acetonitrile] | 0.0126 µM | 63% |  | 
O=c1[nH]c2ccc(-c3c(Cl)ccc(Cl)c3Cl)cc2[nH]1 [Example 66, 5-(2,3,6-Trichlorophenyl)-1,3-dihydrobenzimidazol-2-one] | 0.01 µM | 86% |  | 
COc1cccc(OCC(C)C)c1-c1ccc2[nH]c(=O)[nH]c2c1 [Example 14, 5-(2-Isobutoxy-6-methoxy-phenyl)-1,3-dihydrobenzimidazol-2-one] | 0.0316 µM | 69% |  | 
O=c1[nH]c2ccc(-c3c(Cl)cccc3C3CC3)cc2[nH]1 [Example 160, 5-(2-Chloro-6-cyclopropyl-phenyl)-1,3-dihydrobenzimidazol-2-one] |  | 70% | 8.2 | 
Cc1cccc(C)c1-c1ccc2[nH]c(=O)[nH]c2c1 [Example 2, 5-(2,6-Dimethylphenyl)-1,3-dihydrobenzimidazol-2-one] |  |  | 6.8 | 70%
Cc1cccc(Cl)c1-c1ccc2[nH]c(=O)[nH]c2c1 [Example 36, 5-(2-Chloro-6-methyl-phenyl)-1,3-dihydrobenzimidazol-2-one] | 0.0631 µM | 72% |  | 
N#CCc1cccc(OC(F)(F)F)c1-c1ccc2[nH]c(=O)[nH]c2c1 [Example 123] | 0.0158 µM | 59% |  | 
